Where two headings read alike, the source gives them in different places.
What was measured:
fungi [1] = conditions: racemic compound, described in WO 2010/063700; cited from earlier work
fungi [2] = experiment: fungicidal activity (general statement, no test described); conditions: enantiomer Ib compared with enantiomer Ia / racemate

For `CON(C(=O)c1cn(C)nc1C(F)F)C(C)Cc1c(Cl)cc(Cl)cc1Cl` (racemic) [3-(difluoromethyl)-N-methoxy-1-methyl-N-[1-methyl-2-(2,4,6-trichlorophenyl)ethyl]pyrazole-4-carboxamide], the fungicidal activity (fungi [1]) is given as “excellent fungicidal activity”.
With `CON(C(=O)c1cn(C)nc1C(F)F)[C@@H](C)Cc1c(Cl)cc(Cl)cc1Cl` [Ib, 3-(difluoromethyl)-N-methoxy-1-methyl-N-[(1S)-1-methyl-2-(2,4,6-trichlorophenyl)ethyl]pyrazole-4-carboxamide] the fungicidal activity (fungi [2]) was “more prominent fungicidal activity”.
